Drawing on US20240009175A9, “TETRAZOLE DERIVATIVES” (Merck Patent GmbH, priority 2020, published 2024), this text covers IC50 and MNT for four molecules.

In data set [1] the target is T1, ACSS2 (Homo sapiens (Human), UniProt Q9NR19). The experiment in a line: Cellular assay of 14C acetate incorporation into fatty acids (IC50 ACSS2 cellular lipids). Format: cell-based. The following applies: HCT-15 cells. How it is done: Cellular Assay of ^14C Acetate Incorporation into Fatty Acids (IC50 ACSS2 Cellular Lipids)
This protocol describes a cellular assay capable to quantify endogenous fatty acid synthesis activity in the human HCT-15 cancer cell line following the incorporation of extracellularly administered radiolabeled ^14C acetate with a scintillation proximity based read out on extracted fatty acids.
HCT-15 cells were grown in RPMI 1640 (Gibco) supplemented with 2 mM glutamine, 1 mM sodium pyruvate 10 mM HEPES and 10% FCS (heat-inactivated) passaged every 2-3 days to remain a subconfluent, vital culture. A working cell bank was prepared with each aliquot containing 1×10^7 viable cells. After thawing, these cells are dilute immediately 1:20 in pre-warmed (37° C.) culture medium. Cells are collected by centrifugation at 200×g for 5 min, and the supernatant is replaced by 30 mL of fresh culture medium per aliquot to obtain a cell suspension containing 350000 cells/ml. From this cell suspension 100 μL are dispersed into each well of a collagen coated 96 well plate, (black, clear bottom, PS, F-bottom, Greiner) and culture for 24 h (37° C., 5% CO2). After incubation the culture medium is removed and the wells are washed once with 100 μL PBS++(supplemented with Mg^2+/Ca^2+, Gibco) and 50 μL assay medium (RPMI 1640+10 mM HEPES) are added to each well. Compounds serial dilutions are prepared from 10 mM stock solutions in DMSO using a fixed dilution factor (usually 1:3). After preparation of the dilution series in DMSO, the individual dilutions are further diluted in the assay medium. This working dilution is prepared such, that the concentration is 7× of the final concentration in the assay. The maximal DMSO concentration in the final assay is 0.1%.
To each well 10 μL compound working dilution or DMSO blank are added and the cells are cultured for 2 h (37° C., 5% CO2). Then 10 μL AlamarBlue reagent (Invitrogen) containing 14 μCi/mL 14C-acetate (Perkin Elmer) are added to each well (70 μl total volume) and cells are again cultured for 2 h. Cell viability is verified by measuring the AlamarBlue fluorescence (Tecan Safire, ex: 544 nm/em: 590 nm). After incubation the culture medium is removed and the wells are carefully washed once with cold 100 μL PBS++. For cell lysis and fatty acid recovery 50 μl 0.1 M NaOH and 0.1% Triton-X100 are added per well. The plate is sealed with PlateLoc (clear peelable heat seal, Agilent) and incubate at 70° C. for 16-24 h. After cooling to room temperature, the plates are centrifuged for 1 min at 1000 rpm and the plate seals are removed. For acidification 150 μL 0.1 M HCl are added to each well, mixed and 150 μL of the mixture are transferred into a 96 well FlashPlate (Perkin Elmer). The plates are sealed with TopSeal-A (Perkin Elmer). To allow for the fatty acid binding to the well surfaces the plates are incubate for 4 h at 70° C. After cooling to room temperature, the plates are centrifuged for 1 min at 1000 rpm and stored for 0.5-2h at room temperature in the dark. Radioactivity from ^14C incorporation into fatty acids in the wells is measured as CPM count in a MicroBeta scintillation counter (Perkin Elmer).

Data set [2] concerns the target T1, ACSS2. The experiment in a line: Cellular assay of 14C acetate incorporation into histones (IC50 ACSS2 cellular histone). Format: cell-based. As to conditions: HCT-15 cells. An excerpt:
Cellular Assay of ^14C Acetate Incorporation into Histones (IC50 ACSS2 Cellular Histone)
This protocol describes a cellular assay capable to quantify endogenous histone acetylation activity in the human HCT-15 cancer cell line following the incorporation of extracellularly administered radiolabeled ^14C acetate with a scintillation based read out on acid extracted histones.
HCT-15 cells are trypsinized, washed and suspended in DMEM culture medium supplemented with penicillin/streptomycin (100 U/mL), sodium pyruvate (1 mM), and 10% FBS
Compounds serial dilutions are prepared in 96-well V-bottom microplate from 10 mM stock solutions in DMSO. From these dilutions 0.5 μl are transferred to a fresh plate including pure DMSO as negative control. The dilutions are prepared such, that the final concentration in the assay is 1/400 of the concentration in the serial dilution. The final DMSO concentration in the assay is 0.25%.
The cell suspension is seeded at densities of 2×10^5 cells per 170 μl into individual wells of a 96 well plate each containing 0.5 μl aliquots of compound serial dilutions and are kept for 1 h in a cell incubator. To each well 30 μL of a mixture containing 0.5 mCi/mL of ^14C-acetate with full medium are added. Then, the wells are incubated for 3 hrs in the cell incubator.
Further steps of the procedure should be conducted on ice or instrumentations precooled to 4° C. Cells are sedimented in the 96-well V-bottom microplate by centrifugation (Eppendorf 5804 R) at 1200 rpm for 5 min. The supernatant is removed and the cells are washed twice with 200 μL of PBS-NaB (5 mM sodium butyrate) buffer by iterative resuspension and centrifugation. Finally, the cells are resuspended in 50 μL of TEB (PBS-NaB+0.5% Triton X-100) and left on ice for 10 minutes. After centrifugation at 2300 rpm for 10 minutes at 4° C. the supernatant is removed, the remaining pellet is suspended in 50 μL of 0.2M HCl and incubated over night at 4° C. After incubation the well plate is shaken for 2 minutes in a MTP plate shaker set to 1200 rpm and then centrifuged at 3700 rpm for 10 mins. The lysate is carefully aspirated (˜43 μL) and transferred into a white MTP plate (Greiner bio-one 65509). 90 μL of Ultima Gold XR scintillation cocktail are added and the plates are sealed with a transparent cover tape before mixing vigorously using plate shaker set to 1200 rpm. Radioactivity from ^14C incorporation in the wells is measured as CPM count in a MicroBeta Trilux luminescence counter.

The next data set deals with human rec ACSS2 (Homo sapiens (Human), UniProt Q9NR19). The experiment in a line: Biochemical activity ACSS2 assay (AMP-Glo). As to conditions: human recombinant ACSS2, AMP-Glo, 180 min at 37° C. An excerpt:
Biochemical Activity ACSS2 Assay (IC50 ACSS2 Biochemical)
The biochemical activity assay for ACSS2 is based on the detection of released AMP by AMP-Glo™ Assay kit (Promega, Madison). The assay is run in three steps: the enzymatic reaction in which human rec ACSS2 activates acetate with ATP and Coenzyme A as cosubstrates to acetyl-CoA thereby releasing AMP and the detection reaction of AMP by AMP Glo assay in which after the destruction of the residual ATP with AMP Glo reagent 1 produced AMP is converted to ATP that is measured in a luciferase assay system (detection reagent). The ACSS2 activity correlates with the detected luminescence signal.
The assay was performed in Perkin Elmer 384 well white Proxiplates in a total volume of 8 μl.
1 nM (fc)C-term myc tagged ACSS2 (human, recombinant, Origene, Rockville, US) and a mixture of 100 μM (fc) ATP, 100 μM (fc) Coenzyme A and 500 μM (fc) sodium acetate were incubated in a total volume of 5 μl (50 mM Hepes, 1 mM Mg-chloride, 150 mM NaCl, 1 mM DTT, 0.01% (w/v) BSA, 0.3% DMSO, pH 7.5) in the absence or presence of the test compound (10 dilution concentrations, start conc 30 μM) for 180 min at 37° C. The reaction was stopped and residual ATP destroyed by the addition of 1 μl AMP Glo reagent solution (Promega, Madison, US). After 1h incubation at room temperature 2 μl of AMP Glo detection reagent was added and the assay was incubated for 0.75 hr at room temperature. The luminescence signal was measured with an Envision multimode reader (Perkin Elmer LAS Germany GmbH) at 700 nm in luminescence mode. The full value used was the inhibitor-free reaction. The pharmacological zero value was generated by addition of ACSS2 inhibitor (Ac-CoA Synthase Inhibitor—CAS 508186-14-9-Calbiochem) in a final concentration of 5 μM. The inhibitory values (IC50) were determined using the program Assay Analyzer® from GeneData.

Another data set has as its system CHO-K1 cells. Put plainly: Micronucleus assay (MNT) in vitro. In kind it is cell-based. Further details: key: A: negative, putative negative (micronuclei detected beyond threshold of 60% cyctotoxicity); B: positive. As to conditions: 24 hrs treatment, 0.2 μM to 100 μM. How it is done:
The in vitro MNT assay is performed in CHO-K1 cells due to their stable and well-characterized karyotype, high sensitivity and suitability for a high content imaging approach. They have a basal spontaneous micronucleus frequency of 3-4%.
24 hrs after plating CHO-K1 cells are treated with test compounds for 24 hrs (in duplicates; fixed concentration ranges from 0.2 μM to 100 μM in 2-fold dilution steps). After a medium change cells are incubated for 24 hrs with Cytochalasin B to block cytokinesis and are then fixed and nuclei/micronuclei visualized with a DNA stain. Images are acquired with the Molecular Devices high content imagers IXU or IXM and are analyzed with the dedicated MetaXpress software micronucleus module. Criteria for scoring of micronuclei (MN) are the following: • diameter of the MN should be less than ⅓ of the main nucleus • MN should be separated from or marginally overlap with main nucleus (=no blebs) • MN should have similar staining as the main nucleus
At least 1000 binucleated cells are evaluated per treatment replicate. Mitomycin C is used as reference stimulator of micronucleus formation. Cytotoxicity is evaluated in parallel and defined by comparing total nuclei count in compound-treated samples to neutral control samples treated with vehicle only (1% DMSO) (100% cytotoxicity means all cells are dead or lost).
A test compound is regarded as POSITIVE if generation of micronuclei and exhibition of less than 60% cytotoxicity at the same concentration can be observed.
Compounds are scored only in the soluble concentration range.
Experimental data of the compounds shown in Table 1 in the MNT assay are shown in Table 2 below and classified in the following groups: […]

T1 sequence (Q9NR19 whole entry): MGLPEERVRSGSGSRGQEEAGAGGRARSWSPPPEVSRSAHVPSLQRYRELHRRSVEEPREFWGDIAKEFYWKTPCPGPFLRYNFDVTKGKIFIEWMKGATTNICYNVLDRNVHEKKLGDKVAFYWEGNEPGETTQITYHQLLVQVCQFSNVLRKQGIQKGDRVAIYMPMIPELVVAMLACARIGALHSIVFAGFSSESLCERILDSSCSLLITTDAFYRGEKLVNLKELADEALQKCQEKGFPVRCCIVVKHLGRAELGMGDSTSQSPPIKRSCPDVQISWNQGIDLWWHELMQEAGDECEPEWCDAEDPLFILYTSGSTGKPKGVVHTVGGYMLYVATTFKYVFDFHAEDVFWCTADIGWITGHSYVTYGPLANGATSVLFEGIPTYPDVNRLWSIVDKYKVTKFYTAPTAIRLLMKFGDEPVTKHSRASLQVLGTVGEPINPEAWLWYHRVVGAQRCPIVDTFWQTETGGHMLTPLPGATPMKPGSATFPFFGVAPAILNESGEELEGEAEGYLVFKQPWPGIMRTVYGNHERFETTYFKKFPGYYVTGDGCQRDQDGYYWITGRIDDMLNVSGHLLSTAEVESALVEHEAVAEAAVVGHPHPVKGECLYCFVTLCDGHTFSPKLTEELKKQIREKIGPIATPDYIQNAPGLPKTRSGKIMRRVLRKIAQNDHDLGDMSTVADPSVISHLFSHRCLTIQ
Chain of human rec ACSS2 (Q9NR19 whole entry): as above

`Cc1nc2nc(C(O)(c3ccccc3)c3ccccc3)n(C)c2cc1-c1nnn[nH]1` [Compound 56, [1,5-dimethyl-6-(1H-1,2,3,4-tetrazol-5-yl)-1H-imidazo[4,5-b]pyridin-2-yl]diphenylmethanol]: the figures for the IC50 at ACSS2 [1], against ACSS2 [2] and on human rec ACSS2 were 10 to 100 nM, 100 to 10000 nM and 1 to 10 nM, respectively.
The like results for `CCn1c(C(O)(c2ccccc2)c2nccs2)nc2nc(OC)c(-c3nnn[nH]3)cc21` (racemic) [Compound 31, [1-ethyl-5-methoxy-6-(1H-1,2,3,4-tetrazol-5-yl)-1H-imidazo[4,5-b]pyridin-2-yl](phenyl)(1,3-thiazol-2-yl)methanol] were, in that order, 0.01 to 1 nM, 1 to 10 nM and 1 to 10 nM.
The like results for `CCn1c(C(O)(c2ccccc2)c2ccccc2)nc2nc(F)c(-c3nnn[nH]3)cc21` [Compound 45, [1-ethyl-5-fluoro-6-(1H-1,2,3,4-tetrazol-5-yl)-1H-imidazo[4,5-b]pyridin-2-yl]diphenylmethanol] were, in that order, 1 to 10 nM, 100 to 10000 nM and 10 to 100 nM.
Turning to `CCn1c(C(O)(c2ccccc2)c2cccnn2)nc2nc(OC)c(-c3nnn[nH]3)cc21` (stereo not drawn) [Compound 27, [1-ethyl-5-methoxy-6-(1H-1,2,3,4-tetrazol-5-yl)-1H-imidazo[4,5-b]pyridin-2-yl](phenyl)(pyridazin-3-yl)methanol], in the data set on CHO-K1 cells, the MNT result is on record as “A”. Moreover, the IC50 on ACSS2 [2] and at human rec ACSS2 was 1 to 10 nM throughout.
